Reference: patent US11046700B2, “Substituted imidazo[1,2-a]pyrazines, pyrazolo[1,5-c]pyrimidines, pyrazolo[1,5-a]pyridines, and purines for the treatment of schistosomiasis” (Merck Patent GmbH, priority 2017, dated 2021)
Read-outs that look alike come from different tables or passages of the source.

Legend:
Format in all cases: cell-based
[1] = tested on: S. mansoni adult worms; assay: In vitro assay, S. mansoni adult worms; conditions: Schistosoma mansoni, read-out: (a) Adult
Protocol: (§1) The routine biological assays using adult or juvenile worms and cytotoxicity assays using MRC-5 cells have been disclosed previously in Mansour, N. R., et al. (2016). “High Throughput Screening Identifies Novel Lead Compounds with Activity against Larval, Juvenile and Schistosoma mansoni PLoS Negl Trap Dis 10(4): e0004659. Cytotoxicity assays using the HepG2 cell line were carried out as described in Molecular Diversity (2015) 19, 251-261.
(a) S. mansoni adult worms

[2] = tested on: S. mansoni juvenile worms; assay: In vitro assay, S. mansoni juvenile worms; conditions: Schistosoma mansoni, read-out: (b) Juvenile
Protocol: as §1
(b) S. mansoni juvenile worms

[3] = tested on: HepG2 cell line; assay: Cytotoxicity against human HepG2 cell lines
[4] = S. mansoni adult worms, in vitro
[5] = S. mansoni juvenile worms, in vitro

| Compound | IC50 [1, 4] | IC50 [2, 5] | (e) Cytotox HepG2 [3] | IC50 [1] | IC50 [2] |
| --- | --- | --- | --- | --- | --- |
| Fc1ccc(-c2cn3c(-c4ccc5[nH]ncc5c4F)c(C4CC4)nc3cn2)cc1S(F)(F)(F)(F)F [Example 57, 2-Cyclopropyl-3-(4-fluoro-1H-indazol-5-yl)-6-(4-fluoro-3-pentafluorosulfanyl-phenyl)-imidazo[1,2-a]pyrazine] | 0.017 µM | 0.03 µM | 14.8 µM | – | – |
| Fc1ccc(-c2cn3c(-c4ccc5[nH]ncc5c4F)c(C(F)(F)F)nc3cn2)cc1C1CC1 [Example 84, 6-(3-Cyclopropyl-4-fluoro-phenyl)-3-(4-fluoro-1H-indazol-5-yl)-2-trifluoromethyl-imidazo[1,2-a]pyrazine] | 0.012 µM | 0.019 µM | 10.5 µM | – | – |
| CC(C)c1nc2cnc(-c3cccc(C(F)(F)F)c3)cn2c1-c1ccc(OP(=O)(O)O)cc1F [Example 3, 3-fluoro-4-[2-(propan-2-yl)-6-[3-(trifluoromethyl)phenyl]imidazo[1,2-a]pyrazin-3-yl]phenoxyphosphonic acid] | – | – | 9.2 µM | < 0.049 µM | 0.13 µM |
| CCc1nn2cnc(-c3ccc(F)c(C(F)(F)F)c3)cc2c1-c1c(F)cc(O)cc1F [Example 48, 4-(2-ethyl-5-(4-fluoro-3-(trifluoromethyl)phenyl)pyrazolo[1,5-c]pyrimidin-3-yl)-3,5-difluorophenol] | 0.011 µM | 0.032 µM | 9.8 µM | – | – |
| Oc1cc(F)c(-c2c(C3CCC3)nc3cnc(-c4ccc(F)c(C(F)(F)F)c4)cn23)c(F)c1 [Example 35, 4-(2-cyclobutyl-6-(4-fluoro-3-(trifluoromethyl)phenyl)imidazo[1,2-a]pyrazin-3-yl)-3,5-difluorophenol] | 0.059 µM | 0.073 µM | 5.7 µM | – | – |
| CC(C)c1cc(-c2cn3c(-c4ccc5[nH]ncc5c4F)c(C4CCC4)nc3cn2)ccc1F [Example 77, 2-Cyclobutyl-3-(4-fluoro-1H-indazol-5-yl)-6-(4-fluoro-3-isopropyl-phenyl)-imidazo[1,2-a]pyrazine] | 0.007 µM | 0.004 µM | 10.8 µM | – | – |
| CC(C)c1nc2cnc(-c3ccc(F)c(C(F)(F)F)c3)nc2n1-c1c(F)cc(O)cc1F [Example 89, 3,5-Difluoro-4-[2-(4-fluoro-3-trifluoromethyl-phenyl)-8-isopropyl-purin-9-yl]-phenol] | 0.071 µM | 0.128 µM | 4.8 µM | – | – |
| CC(C)c1nc2cnc(-c3ccc(F)c(C(F)(F)F)c3)cn2c1-c1c(F)cc(OP(=O)(O)O)cc1F [Example 40, 3,5-difluoro-4-{6-[4-fluoro-3-(trifluoromethyl)phenyl]-2-(propan-2-yl)imidazo[1,2-a]pyrazin-3-yl}phenoxyphosphonic acid] | – | – | 6.5 µM | 0.027 µM | 0.025 µM |
| CCc1nc2cnc(-c3cccc(C(F)(F)C(F)(F)F)c3)cn2c1-c1c(F)cc(O)cc1F [Example 52, 4-[2-Ethyl-6-(3-pentafluoroethyl-phenyl)-imidazo[1,2-a]pyrazin-3-yl]-3,5-difluoro-phenol] | < 0.012 µM | 0.01 µM | 8.0 µM | – | – |
| Fc1c(-c2c(C(F)(F)F)nc3cnc(-c4cccc(OC(F)(F)F)c4)cn23)ccc2[nH]ncc12 [Example 72, 3-(4-Fluoro-1H-indazol-5-yl)-6-(3-trifluoromethoxy-phenyl)-2-trifluoromethyl-imidazo[1,2-a]pyrazine] | 0.021 µM | 0.023 µM | 9.7 µM | – | – |
| Fc1ccc(-c2cn3c(-c4ccc5[nH]ncc5c4F)c(C(F)(F)F)nc3cn2)cc1CC(F)(F)F [Example 69, 3-(4-Fluoro-1H-indazol-5-yl)-6-[4-fluoro-3-(2,2,2-trifluoro-ethyl)-phenyl]-2-trifluoromethyl-imidazo[1,2-a]pyrazine] | 0.012 µM | 0.01 µM | 5.3 µM | – | – |
| CC(C)c1nc2cnc(-c3cccc(S(F)(F)(F)(F)F)c3)cn2c1-c1c(F)cc(O)cc1F [Example 39, 3,5-difluoro-4-[2-(propan-2-yl)-6-[3-(pentafluorosulfanyl)phenyl]imidazo[1,2-a]pyrazin-3-yl]phenol] | 0.024 µM | < 0.012 µM | 6.6 µM | – | – |
| CC(C)c1cc(-c2cn3c(-c4ccc5[nH]ncc5c4F)c(C4CC4)nc3cn2)ccc1F [Example 79, 2-Cyclopropyl-3-(4-fluoro-1H-indazol-5-yl)-6-(4-fluoro-3-isopropyl-phenyl)-imidazo[1,2-a]pyrazine] | 0.005 µM | 0.005 µM | 15.7 µM | – | – |
| CC(C)c1cc(-c2cn3c(-c4ccc5[nH]ncc5c4F)c(C(F)(F)F)nc3cn2)ccn1 [Example 87, 3-(4-Fluoro-1H-indazol-5-yl)-6-(2-isopropyl-pyridin-4-yl)-2-trifluoromethyl-imidazo[1,2-a]pyrazine] | 0.037 µM | 0.091 µM | 9.5 µM | – | – |
| Cc1nc2cnc(-c3ccc(F)c(C(F)(F)C(F)(F)F)c3)cn2c1-c1c(F)cc(O)cc1F [Example 53, 3,5-Difluoro-4-[6-(4-fluoro-3-pentafluoroethyl-phenyl)-2-methyl-imidazo[1,2-a]pyrazin-3-yl]-phenol] | 0.019 µM | 0.02 µM | 8.8 µM | – | – |
| CC(C)c1cc(-c2cn3c(-c4ccc5[nH]ncc5c4Cl)c(C(F)(F)F)nc3cn2)ccc1F [Example 83, 3-(4-Chloro-1H-indazol-5-yl)-6-(4-fluoro-3-isopropyl-phenyl)-2-trifluoromethyl-imidazo[1,2-a]pyrazine] | < 0.012 µM | 0.015 µM | 6.6 µM | – | – |
| COc1ccc(-c2c(C(F)(F)F)nc3cnc(-c4cccc(C(F)(F)C(F)(F)F)c4)cn23)cc1O [Example 30, 2-methoxy-5-[2-(trifluoromethyl)-6-[3-(pentafluoroethyl)phenyl]imidazo[1,2-a]pyrazin-3-yl]phenol] | 0.021 µM | < 0.012 µM | 11.1 µM | – | – |
| Fc1ccc(-c2cn3c(-c4ccc5[nH]ncc5c4F)c(C(F)(F)F)nc3cn2)cc1S(F)(F)(F)(F)F [Example 65, 3-(4-Fluoro-1H-indazol-5-yl)-6-(4-fluoro-3-pentafluorosulfanyl-phenyl)-2-trifluoromethyl-imidazo[1,2-a]pyrazine] | 0.044 µM | 0.011 µM | 11.1 µM | – | – |
| Fc1ccc(-c2cn3c(-c4ccc5[nH]ncc5c4F)c(C(F)(F)F)nc3cn2)cc1C1CCC1 [Example 82, 6-(3-Cyclobutyl-4-fluoro-phenyl)-3-(4-fluoro-1H-indazol-5-yl)-2-trifluoromethyl-imidazo[1,2-a]pyrazine] | 0.045 µM | 0.059 µM | 6.1 µM | – | – |
| CC(C)c1nn2cnc(-c3ccc(F)c(C(F)(F)F)c3)cc2c1-c1c(F)cc(O)cc1F [Example 47, 3,5-difluoro-4-(5-(4-fluoro-3-(trifluoromethyl)phenyl)-2-isopropylpyrazolo[1,5-c]pyrimidin-3-yl)phenol] | 0.022 µM | 0.027 µM | 8.9 µM | – | – |
| CCc1nc2cnc(-c3ccc(F)c(C(F)(F)F)c3)cn2c1-c1c(F)cc(O)cc1F [Example 36, 3,5-difluoro-4-[2-ethyl-6-[4-fluoro-3-(trifluoromethyl)phenyl]imidazo[1,2-a]pyrazin-3-yl]phenol] | 0.053 µM | 0.051 µM | 8.3 µM | – | – |
| CC(C)c1cc(-c2cn3c(-c4ccc5[nH]ncc5c4F)c(C(C)C)nc3cn2)ccc1F [Example 74, 3-(4-Fluoro-1H-indazol-5-yl)-6-(4-fluoro-3-isopropyl-phenyl)-2-isopropyl-imidazo[1,2-a]pyrazine] | 0.004 µM | 0.005 µM | 11.0 µM | – | – |
| O=P(O)(O)Oc1cc(F)c(-c2c(C3CC3)nc3cnc(-c4ccc(F)c(C(F)(F)F)c4)cn23)c(F)c1 [Example 62, Phosphoric acid mono-{4-[2-cyclopropyl-6-(4-fluoro-3-trifluoromethyl-phenyl)-imidazo[1,2-a]pyrazin-3-yl]-3,5-difluoro-phenyl}ester] | – | – | 14.8 µM | – | 0.0037 µM |
| CC(C)c1nc2cnc(-c3cccc(C(F)(F)F)c3)nc2n1-c1ccc(O)cc1F [Example 90, 3-fluoro-4-[8-(propan-2-yl)-2-[3-(trifluoromethyl)phenyl]-9H-purin-9-yl]phenol] | 0.077 µM | 0.468 µM | 9.3 µM | – | – |
| CC(C)c1nc2cnc(-c3cccc(C(F)(F)F)c3)cn2c1-c1ccc2[nH]ncc2c1F [Example 21, 4-fluoro-5-{2-propan-2-yl-6-[3-trifluoromethylphenyl]imidazo[1,2-a]pyrazin-3-yl}-1H-indazole] | 0.037 µM | 0.051 µM | 15.1 µM | – | – |
| Fc1c(-c2c(C(F)(F)F)nc3cnc(-c4ccnc(C(F)(F)F)c4)cn23)ccc2[nH]ncc12 [Example 88, 3-(4-Fluoro-1H-indazol-5-yl)-2-trifluoromethyl-6-(2-trifluoromethyl-pyridin-4-yl)-imidazo[1,2-a]pyrazine] | 0.116 µM | 0.14 µM | 7.0 µM | – | – |
| COc1ccc(-c2c(C(C)C)nc3cnc(-c4cccc(C(F)(F)F)c4)cn23)cc1OP(=O)(O)O [Example 28, 2-methoxy-5-[2-(propan-2-yl)-6-[3-(trifluoromethyl)phenyl]imidazo[1,2-a]pyrazin-3-yl]phenoxyphosphonic acid] | – | – | 19.2 µM | – | 0.183 µM |
